{
  "source": "paper PMC4464647",
  "about": "“ANO1 (TMEM16A) in pancreatic ductal adenocarcinoma (PDAC)” (Pflugers Archiv, 2014)",
  "key": {"[1]": {"test_system": "CFPAC-1", "parameters": "method as in Mazzone et al. [23]", "conditions": "CFPAC-1, 10 μM, ref Mazzone et al. [23]; cited from earlier work"}, "[2]": {"test_system": "bronchial epithelial cells", "parameters": "method as in Scudieri et al. [39]", "conditions": "ref Scudieri et al. [39], cited from earlier work"}, "[3]": {"test_system": "HPDE cells", "experiment": "BrdU incorporation cell proliferation assay", "assay_type": "cell-based, human", "conditions": "inhibitor 20 μM, 24 h", "procedure": "(§1) To assess cell proliferation and apoptosis, cells were plated in duplicates on a 96-well plate and incubated in 100 μl of the cell line appropriate media described above. Cells were transfected with siRNA soon after complete attachment (approx. 3 h after seeding). Cells were treated with vehicle, 20 μM gemcitabine, 20 μM T16Ainh-A01, or 10 μM free NS3728 (see below) after culture in a humidified 37 °C and 5 % CO2 incubator overnight. BrdU incorporation was measured using Cell Proliferation ELISA, BrdU (chemiluminescent) (Roche Diagnostics A/S, Denmark) following the manufacturer’s instructions. Caspases 3, 6, and 7 activation was evaluated using Homogeneous Caspases Assay (fluorimetric) (Roche Diagnostics A/S, Denmark).\nFig. 7 VRAC, but not ANO1, regulates cellular proliferation. a Summary of BrdU incorporation in HPDE, Capan-1, AsPC-1, and BxPC-3 cells after various treatments as indicated. Cells were transfected shortly after complete attachment (approx. 3 h) and BrdU incorporation was assessed 36 h after transfection. To investigate effect of inhibitors, cells were incubated for 24 h with respective inhibitor. Values shown are relative to appropriate control. Data shown represents mean ± s.e.m. of n = 4–6 individual experiments. **p ≤ 0.01 and ***p ≤ 0.001 when compared with control"}, "[4]": {"test_system": "HPDE, Capan-1, AsPC-1 and BxPC-3 cells", "experiment": "Homogeneous caspases assay after gemcitabine treatment", "assay_type": "cell-based, human", "conditions": "T16Ainh-A01, 24 h", "procedure": "as §1, with “Denmark). […]” for “Denmark).”"}, "[5]": {"test_system": "ANO1", "experiment": "Western blot of ANO1 protein expression after siRNA knockdown", "assay_type": "cell-based, human", "conditions": "36 h after transfection, β-actin loading control", "procedure": "DharmaFECT 1 Transfection Reagent (Thermo Scientific, Germany) was used for transfection of siRNA targeting ANO1 (50 nM final concentration) or scrambled (5 nM final concentration). Cells were transfected according to the manufacturer’s protocol. Predesigned siRNA oligo was obtained from Sigma-Aldrich (5′-[…][dT][dT]-3′, 5′-[…][dT][dT]-3′) or negative control (Silencer® Negative Control No. 1 siRNA; Ambion, Denmark). ANO1 overexpressing HEK293 cells were generated by adding 0.5 μg/ml mANO1-GFP vector to DMEM containing 1 % v/v penicillin and streptomycin. The mixture was vortexed and incubated for 5 min, and 20 μg/ml polyethylenimine (PEI) was added. The mixture was vortexed again and added drop-wise to 60 % confluent HEK293 cells in DMEM medium containing 5 % v/v FBS and 1 % v/v penicillin and streptomycin after 10 min incubation at room temperature. Media was changed after 4 h incubation at 37 °C and 5 % CO2.\nProtein was isolated from cells 36 h after transfection with siRNA targeting ANO1, in a lysis buffer containing (in mM): 10 Tris–HCl, 10 EDTA, 1 % sodium dodecyl sulfate (SDS), 0.5 % sodium deoxycholate, and 1 % complete protease inhibitor mixture (Roche, Denmark), pH 7.4, and was separated by 7 % SDS-PAGE. Protein was subsequently transferred to nitrocellulose membrane (Novex, Denmark). […]\nFig. 3 ANO1 is the major contributor of CaCC currents in PDAC cells and is sensitive to Cl^− channel inhibitors and siRNA. Whole-cell patch-clamp recordings with 1 μM Ca^2+ in pipette solution. a Representative current traces measured in Capan-1 cells upon exposure to different inhibitors. b Quantification of CaCC currents at +67 mV recorded with inhibitors compared to currents in presence of DMSO; currents of siANO1 cells were compared to those of MOCK transfected cells. c Steady-state I–V relationships of cells transfected with either scrambled siRNA (MOCK) or siRNA targeting ANO1. d Densitometric quantification of Western blot analysis of siRNA knockdown. β-Actin was used as a loading control. […]"}, "[6]": {"test_system": "AsPC-1 cells", "experiment": "Scratch wound healing assay", "assay_type": "cell-based, human", "conditions": "AsPC-1, siRNA 50 nM vs scrambled 5 nM, 5 μM aphidicolin", "procedure": "Cells were seeded into Essen ImageLock 96-well plates. Cells were transfected with siRNA shortly after cells completely attached at 80 % confluency. […] The wound confluence was obtained and analyzed by using the IncuCyte phase-contrast imaging and scratch wound assay system and software (Essen Bioscience, USA). Wound closure was assessed by comparing the mean relative wound density (%RWD) according to the following formula: % RWD = 100 × w(t) − w(0)/[…]. Here, w(t) is the density of wounded area at time t and c(t) is the density of cell region at time t. Each experiment was conducted in triplicates.\nWe therefore assessed a possible contribution of ANO1 in PDAC cell migration using wound healing assay. […] The experiments were conducted in the presence of 5 μM aphidicolin to rule out a possible effect on cell proliferation. […] AsPC-1 cells were therefore not well suited for studies of lateral motility.\nFig. 9 ANO1 supports migration of PDAC cells. Wound healing assay is shown as relative wound density (density of wounded area relative to confluency of cell region) over time. Aphidicolin (5 μM) was added to stop proliferation. a AsPC-1 cells and b BxPC-3 cells after transfection with either scrambled siRNA (5 nM) or siRNA targeting ANO1 (50 nM). c BxPC-3 cells in presence of different inhibitors. Data shown represents mean ± s.e.m. of n = 4 experiments; each run was carried out in triplicates"}},
  "note": "d = 2'-deoxy (DNA)",
  "data": [
    {"compound": "CCc1c(C)nc(SCC(=O)Nc2nc(-c3ccc(OC)cc3)cs2)[nH]c1=O", "note": "[T16Ainh-A01, 2-[(5-Ethyl-1,6-dihydro-4-methyl-6-oxo-2-pyrimidinyl)thio]-N-[4-(4-methoxyphenyl)-2-thiazolyl]acetamide]", "values": [
      {"measurement": "proliferation", "setting": "[1]", "value": "decrease in proliferation"},
      {"measurement": "inhibition of Ca2+-activated Cl− secretion", "setting": "[2]; 10 μM", "value": "relatively weak inhibition"},
      {"measurement": "UTP-induced Cl− secretion in short-circuit current recordings", "setting": "[2]; cells prior exposed to 10 μM", "value": "significantly attenuated"},
      {"measurement": "proliferation (BrdU incorporation)", "setting": "[3]", "value": "showed inhibited proliferation"},
      {"measurement": "protection from apoptosis (Caspase-3 activity)", "setting": "[4]", "value": "less pronounced"}
    ]},
    {"compound": "siRNA targeting ANO1: Predesigned siRNA oligo from Sigma-Aldrich, 5′-CCUUCAACGUCAGUGACUU[dT][dT]-3′, 5′-AAGUCACUGACGUUGAAGG[dT][dT]-3′ (RNA, 3' dTdT, backbone not given here)", "values": [
      {"measurement": "ANO1 protein expression decreased to", "setting": "[5]; AsPC-1 cells", "value": "54 ± 14", "unit": "%"},
      {"measurement": "ANO1 protein expression decreased to", "setting": "[5]; BxPC-3 cells", "value": "20 ± 7", "unit": "%"},
      {"measurement": "ANO1 protein expression decreased to", "setting": "[5]; Capan-1 cells", "value": "37 ± 8", "unit": "%"},
      {"measurement": "migration (relative wound density over time)", "setting": "[6]", "value": "significantly decreased migration"}
    ]}
  ]
}
